The structures appear in SMILES notation. Where two headings read alike, the source gives them in different places.

The test system of one experiment is soybean looper larvae. In words: Leaf dip test, soybean looper larvae. It is filed as in vivo, Chrysodeixis includens. To be noted: foliar, Bta 27 ppm, cyantraniliprole 1.0 ppm, mixture 27 ppm + 1.0 ppm, read-out: % Efficacy. The method, then: (§1) The present invention is not limited to the products or formulation types used herein. In each example below, the studies were conducted as follows.
(§2) For these tests, standardized laboratory leaf dip methods were used to inoculate plant material with treatment(s). Dry, treated leaves were placed into Petri dishes (100×25 mm) containing filter paper wetted with 500 μl of distilled H2O (“dH2O”). Each dish was then infested with between 5 and 10 larvae, dependent on species. Efficacy ratings were taken at specified intervals. Synergy ratings were calculated for each test.
(§3) % Cexp=A+B−(AB/100), where % Cexp is the expected efficacy and “in which A and B are the control levels given by the single [insecticides]. […] Adopting a conservative approach, Applicant determined synergy to be present at ratios of >1.15.

Another experiment concerns diamondback moth larvae. Description: Leaf dip test, diamondback moth larvae. It is filed as in vivo. As to conditions: Plutella xylostella, foliar, Bta 2.7 ppm, cyantraniliprole 0.1 ppm, mixture 2.7 ppm + 0.1 ppm, read-out: % Efficacy. The source says: The following examples illustrate the effectiveness of Bacillus thuringiensis subsp. aizawai and cyantraniliprole when controlling diamondback moth, cabbage looper, beet armyworm, soybean looper, corn earworm, southwestern corn borer and sugarcane borer. Xentari® was used as the source of Bacillus thuringiensis subsp. aizawai and Exirel® was used as the source of cyantraniliprole. The present invention is not limited to the products or formulation types used herein. In each example below, the studies were conducted as follows.
For these tests, standardized laboratory leaf dip methods were used to inoculate plant material with treatment(s). […] Synergy ratings were calculated for each test. […]
% Cexp=A+B−(AB/100), where % Cexp is the expected efficacy and “in which A and B are the control levels given by the single [insecticides]. […] Adopting a conservative approach, Applicant determined synergy to be present at ratios of >1.15. […]
In order to determine synergy, rates below normal field rate ranges must be used. If normal field rate ranges are used, all of the larvae would die (combining a lethal or near lethal dose of Bacillus thuringiensis subsp. aizawai with a lethal dose of cyantraniliprole would most likely lead to larvae death) in every treatment and synergy would not be able to be determined. […]

In experiment [1] the test system is southwestern corn borer larvae. Description: Leaf dip test, southwestern corn borer larvae. To be noted: foliar, Bta 2.7 ppm, cyantraniliprole 0.1 ppm, mixture 2.7 ppm + 0.1 ppm, read-out: % Efficacy. Type of experiment: in vivo, Diatraea grandiosella. The method, then: as §1, §2, §3
For the next experiment, the system named is sugarcane borer larvae. In words: Leaf dip test, sugarcane borer larvae. It is filed as in vivo. To be noted: Diatraea saccharalis, foliar, Bta 2.7 ppm, cyantraniliprole 1.0 ppm, mixture 2.7 ppm + 1.0 ppm, read-out: % Efficacy. The method, then:
as §1, §2, §3

Another experiment relates to beet armyworm larvae. Description: Leaf dip test, beet armyworm larvae. Type of experiment: in vivo. As to conditions: Spodoptera exigua, foliar, Bta 2.7 ppm, cyantraniliprole 1.0 ppm, mixture 2.7 ppm + 1.0 ppm, read-out: % Efficacy. The method, then: as §1, §2, §3
Another experiment concerns corn earworm larvae. Description: Leaf dip test, corn earworm larvae. As to conditions: Helicoverpa zea, foliar, Bta 27 ppm, cyantraniliprole 10.0 ppm, mixture 27 ppm + 10.0 ppm, read-out: % Efficacy. Type of experiment: in vivo. As to the method:
as §1, §2, §3

A further experiment has as its system cabbage looper larvae. Description: Leaf dip test, cabbage looper larvae. It is filed as in vivo. To be noted: Trichoplusia ni, foliar, Bta 2.7 ppm, cyantraniliprole 0.50 ppm, mixture 2.7 ppm + 0.50 ppm, read-out: % Efficacy. As to the method:
as §1, §2, §3

As for `CNC(=O)c1cc(C#N)cc(C)c1NC(=O)c1cc(Br)nn1-c1ncccc1Cl` [Cyantraniliprole, 3-Bromo-1-(3-chloro-2-pyridinyl)-N-[4-cyano-2-methyl-6-(methylcarbamoyl)phenyl]-1H-pyrazole-5-carboxamide], the Emax at 1 ppm with soybean looper larvae (24 h after treatment) is 4%; with soybean looper larvae (48 h after treatment), 25%; in the experiment with sugarcane borer larvae (24 h after treatment), 42%; in the experiment on sugarcane borer larvae (48 h after treatment), 42%; in the experiment with beet armyworm larvae (24 h after treatment) it was 22%; in the experiment on beet armyworm larvae (48 h after treatment), 36%. In addition, the Emax at 0.1 ppm with diamondback moth larvae (24 h after treatment) came out at 34%; in the experiment on diamondback moth larvae (48 h after treatment) it was 60%; in experiment [1] (24 h after treatment), 17%; in experiment [1] (48 h after treatment), 24%. For the same compound, the Emax at 10 ppm turned out to be 49% with corn earworm larvae (24 h after treatment) and 51% in the experiment on corn earworm larvae (48 h after treatment). In addition, the Emax at 0.5 ppm with cabbage looper larvae (24 h after treatment) is 18%; in the experiment with cabbage looper larvae (48 h after treatment), 38%.
